Several values for one entry are separate records, joined by “and”; a condition that tells them apart may be missing. Equal values may be shown once. Read-outs that look alike come from different tables or passages of the source.
Columns and labels:
[1] = biological target: T1, SARS-CoV-2 3CL protease (Severe acute respiratory syndrome coronavirus 2, UniProt P0DTD1); assay: biochemical; conditions: for Normalized SARS-CoV-2 3CL protease activity: 0.2 µM protease with 50 µM tested compound, replicates; for IC50: 200 nM protease, read-out: IC50
[2] = biological target: T1, SARS-CoV-2 3CL protease; format: biochemical; parameters: Avg: unit not given here; conditions: for Inhibition at 10 µM: 10 µM compound; for Inhibition at 100 µM: 100 µM compound; for IC50 / LogIC50: Figure S1 and S2
[3] = Conc 10 µM, mean response (inhibition) of dose-response curve
[4] = Conc 15 µM, mean response (inhibition) of dose-response curve
[5] = Conc 20 µM, mean response (inhibition) of dose-response curve
[6] = Conc 50 µM, mean response (inhibition) of dose-response curve
[7] = Conc 100 µM, mean response (inhibition) of dose-response curve
[8] = Conc 200 µM, mean response (inhibition) of dose-response curve
[9] = dose-response curve of fragment hit
[10] = log of IC50 (µM), dose-response curve fit
[11] = Conc 10 µM, average response of dose-response curve
[12] = Conc 15 µM, average response of dose-response curve
[13] = Conc 20 µM, average response of dose-response curve
[14] = Conc 50 µM, average response of dose-response curve
[15] = Conc 100 µM, average response of dose-response curve
[16] = Conc 200 µM, average response of dose-response curve
[17] = dose-response retest of fragment hits

CSc1ncccc1C#N [NT-1-21]
Normalized SARS-CoV-2 3CL protease activity [1]: 1.059 and 1.079 and 0.9766

O=CCN(Cc1ccccc1)S(=O)(=O)c1ccccc1 [AZVIII-57D]
Normalized SARS-CoV-2 3CL protease activity [1]: 1.196 and 1.186 and 0.9817 | IC50 [1]: > 50 µM

COc1ccc(S(=O)(=O)N(CC=O)Cc2ccccc2)cc1 [AZVIII-57G]
Normalized SARS-CoV-2 3CL protease activity [1]: 1.117 (2×) and 1.175 (2×) and 1.168 (2×) | IC50 [1]: > 50 µM

CCN(c1ccc(C(=O)CCl)cc1)S(C)(=O)=O [Z85932823]
Inhibition at 10 µM [2]: 25% | Inhibition at 100 µM [2]: 84% | Avg [2, 3]: 25.1 | Avg [2, 4]: 25.8 | Avg [2, 5]: 34.6 | Avg [2, 6]: 58.2 | Avg [2, 7]: 84.1 | Avg [2, 8]: 87.1 | IC50 [2, 9]: 39.7 µM | LogIC50 ([2]; log10 of IC50 in µM): 1.598

O=C(NCCC(O)c1ccccc1)c1cccnc1S (centres unmarked) [Z1275438373]
Inhibition at 10 µM [2]: 13% | Inhibition at 100 µM [2]: 100% | Avg ([2]; Conc 10 µM): 12.5 | Avg ([2]; Conc 15 µM): 9.1 | Avg ([2]; Conc 20 µM): 42.4 | Avg ([2]; Conc 50 µM): 99.1 | Avg ([2]; Conc 100 µM): 101.3 | Avg ([2]; Conc 200 µM): 95.1 | IC50 ([2]; dose-response curve fit): 20.2 µM | LogIC50 [2, 10]: 1.3058

Cc1cnccc1CCNC(=O)c1cccnc1S [Z1515958452]
Inhibition at 10 µM [2]: 4% | Inhibition at 100 µM [2]: 100% | Avg [2, 11]: 4 | Avg [2, 12]: -6.1 | Avg [2, 13]: 25.7 | Avg [2, 14]: 93.3 | Avg [2, 15]: 101.4 | Avg [2, 16]: 97.8 | IC50 [2, 17]: 20.6 µM | LogIC50 ([2]; log of IC50 in µM): 1.315

O=S(=O)(NCc1ccccc1)c1ccccc1 [AZVIII-44D]
Normalized SARS-CoV-2 3CL protease activity [1]: 1.234 and 1.326 and 1.299 | IC50 [1]: > 50 µM

Cc1ccc(CNC(=O)n2ccnc2)cc1 [Z295462498]
Inhibition at 10 µM [2]: 21% | Inhibition at 100 µM [2]: 100% | Avg [2, 3]: 21 | Avg [2, 4]: 37.9 | Avg [2, 5]: 33.6 | Avg [2, 6]: 84.1 | Avg [2, 7]: 101.3 | Avg [2, 8]: 104 | IC50 [2, 9]: 26.7 µM | LogIC50 ([2]; log10 of IC50 in µM): 1.426

NS(=O)(=O)c1ccc(S)nc1 [Z235344787]
Inhibition at 10 µM [2]: 6% | Inhibition at 100 µM [2]: 100% | Avg [2, 11]: 5.7 | Avg [2, 12]: 20.7 | Avg [2, 13]: 38.6 | Avg [2, 14]: 106.4 | Avg [2, 15]: 110.1 | Avg [2, 16]: 111.3 | IC50 [2, 17]: 22.3 µM | LogIC50 ([2]; log of IC50 in µM): 1.348

O=C(CCl)c1ccc(N2CCCC2=O)cc1 [Z221603842]
Inhibition at 10 µM [2]: 47% | Inhibition at 100 µM [2]: 87% | Avg [2, 11]: 46.5 | Avg [2, 12]: 48.2 | Avg [2, 13]: 62.2 | Avg [2, 14]: 77.1 | Avg [2, 15]: 86.9 | Avg [2, 16]: 83.1 | IC50 [2, 17]: 14 µM | LogIC50 ([2]; log of IC50 in µM): 1.147

O=C(CCl)c1ccc(F)c(C(=O)CCl)c1 [Z2768504793]
Inhibition at 10 µM [2]: 3% | Inhibition at 100 µM [2]: 63% | Avg [2, 3]: 3.4 | Avg [2, 4]: 11.1 | Avg [2, 5]: 34.1 | Avg [2, 6]: 48.5 | Avg [2, 7]: 62.9 | Avg [2, 8]: 79.1 | IC50 [2, 9]: 50.2 µM | LogIC50 ([2]; log10 of IC50 in µM): 1.7

Cc1nc(CCNC(=O)c2cccnc2S)sc1C [Z1432661577]
Inhibition at 10 µM [2]: 10% | Inhibition at 100 µM [2]: 100% | Avg ([2]; Conc 10 µM): 10.2 | Avg ([2]; Conc 15 µM): 5.7 | Avg ([2]; Conc 20 µM): 26.8 | Avg ([2]; Conc 50 µM): 103 | Avg ([2]; Conc 100 µM): 104.1 | Avg ([2]; Conc 200 µM): 108.4 | IC50 ([2]; dose-response curve fit): 20.8 µM | LogIC50 [2, 10]: 1.319

O=C(CCl)NC(=O)OCc1ccccc1 [Z108566700]
Inhibition at 10 µM [2]: 22% | Inhibition at 100 µM [2]: 100% | Avg ([2]; Conc 10 µM): 22.2 | Avg ([2]; Conc 15 µM): 41.7 | Avg ([2]; Conc 20 µM): 51.1 | Avg ([2]; Conc 50 µM): 86.4 | Avg ([2]; Conc 100 µM): 100.3 | Avg ([2]; Conc 200 µM): 108.1 | IC50 ([2]; dose-response curve fit): 19 µM | LogIC50 [2, 10]: 1.279

Nc1nccnc1S [Z1868316802]
Inhibition at 10 µM [2]: 21% | Inhibition at 100 µM [2]: 92% | Avg [2, 11]: 20.5 | Avg [2, 12]: 24.1 | Avg [2, 13]: 32.6 | Avg [2, 14]: 92.3 | Avg [2, 15]: 91.8 | Avg [2, 16]: 82.9 | IC50 [2, 17]: 23.3 µM | LogIC50 ([2]; log of IC50 in µM): 1.368

Reference: paper PMC8989888, “Development of optimized drug-like small molecule inhibitors of the SARS-CoV-2 3CL protease for treatment of COVID-19” (Nature Communications, 2022)
